{"source": "patent US8497365B2", "about": "“Cyclodextrin-based polymers for therapeutics delivery” (priority 2007, dated 2013)", "key": {"[1]": {"test_system": "human ovarian carcinoma cell line A2780", "experiment": "Cytotoxicity of etoposide derivatives, MTS assay", "type": "cell-based", "conditions": "A2780, 72 h", "protocol": "The cytotoxicity of drug-polymer conjugates and linker-drug precursors was determined in the human ovarian carcinoma cell line A2780. […] 10,000 cells per well were seeded in a 96-well plate and incubated at 37° C. for 24 hours, at which time drug was added to triplicate wells at various concentrations. After 72 hours of incubation at 37° C. in the presence of drug, cells were washed with PBS, incubated for 1 hour with an MTS solution, and analyzed according to manufacturer's instructions (CellTiter 96 one solution cell proliferation assay, Promega, Madison, Wis.)."}, "[2]": {"conditions": "for Day of mean BW Nadir / # of TR (treatment related deaths) / Avg. Day of TR: qwkx3 iv", "experimental": "HRLN female nu/nu mice were set up and dosing solutions were prepared. Body weight was determined biweekly until the end of the study. The endpoint was where mean weight loss exceeded 20% or >10% of animals in a group died, dosing was immediately stopped. Moribund animals were euthanized following PRC SOP. All animals were euthanized 14 days post final dose."}, "[3]": {"test_system": "HT-29 colorectal carcinoma xenografts", "experiment": "Efficacy study in subcutaneous HT29 xenograft", "conditions": "for Deaths TR (treatment related) / Regressions CR (complete regression) / Regressions PR (partial regression) / Regressions TFS (tumor-free survivor): n=10; for Median TTE (time to endpoint): endpoint 1000 mm^3 or Day 90", "experimental": "Efficacy was evaluated in nude mice bearing subcutaneously implanted HT-29 colorectal carcinoma xenografts. HRLN female nu/nu mice were set up with 1 mm^3 HT-29 tumor fragments s.c. in the flank. The pair match was then done when the tumors reached an average size of 80 to 120 mg and was followed by beginning treatment. Dosing solutions were prepared daily and body weight was determined bi-weekly until the end of the study. Caliper measurements were taken bi-weekly to the end of the study. Animals were monitored individually, and the endpoint of the experiment was a tumor volume of 1 g or 90 days, whichever came first. […] When the endpoint was reached, the animals were euthanized.\nTubulysin A was administered as a solution in 10% DMSO:1% Tween 80:89% Saline. The vehicle was 10% DMSO:1% Tween 80:89% Saline."}, "[4]": {"conditions": "neutral pH"}, "HT-29 (colon) cells": {"test_system": "HT-29 (colon) cells", "experiment": "Antiproliferative activity in vitro", "type": "cell-based, human"}}, "note": "Like-named read-outs stand apart in the source and are kept apart here."}
{"smiles": "COc1cc([C@@H]2c3cc4c(cc3[C@@H](O[C@@H]3O[C@@H]5CO[C@@H](C)O[C@H]5[C@H](O)[C@H]3O)[C@H]3COC(=O)[C@H]23)OCO4)cc(OC)c1O", "note": "[etoposide]", "values": [{"measurement": "IC50", "setting": "[1]", "value": 200, "unit": "nM"}]}
{"smiles": "CC[C@H](C)[C@H](NC(=O)[C@H]1CCCCN1C)C(=O)N(COC(=O)CC(C)C)[C@H](C[C@@H](OC(C)=O)c1nc(C(=O)N[C@@H](Cc2ccc(O)cc2)C[C@H](C)C(=O)O)cs1)C(C)C", "note": "[Tubulysin A, tubulysin A]", "values": [{"measurement": "Day of mean BW Nadir", "setting": "[2]; 0.05 mg/kg", "value": 5, "unit": "days"}, {"measurement": "# of TR (treatment related deaths)", "setting": "[2]; 0.05 mg/kg, n=5", "value": 0}, {"measurement": "Avg. Day of TR", "setting": "[2]; 0.3 mg/kg", "value": 9}, {"measurement": "Day of mean BW Nadir", "setting": "[2]; 0.3 mg/kg", "value": 8, "unit": "days"}, {"measurement": "# of TR (treatment related deaths)", "setting": "[2]; 0.3 mg/kg, n=4", "value": 4}, {"measurement": "Avg. Day of TR", "setting": "[2]; 1 mg/kg", "value": 4}, {"measurement": "Day of mean BW Nadir", "setting": "[2]; 1 mg/kg", "value": 3, "unit": "days"}, {"measurement": "# of TR (treatment related deaths)", "setting": "[2]; 1 mg/kg, n=4", "value": 4}, {"measurement": "Avg. Day of TR", "setting": "[2]; 3 mg/kg", "value": 3}, {"measurement": "Day of mean BW Nadir", "setting": "[2]; 3 mg/kg", "value": 2, "unit": "days"}, {"measurement": "# of TR (treatment related deaths)", "setting": "[2]; 3 mg/kg, n=4", "value": 4}, {"measurement": "maximum tolerated dose (MTD)", "setting": "[2]; nude mice, conjugate in Tubulysin equivalents", "value": 0.05, "unit": "mg/kg"}, {"measurement": "IC50", "setting": "A2780 (ovarian) cells", "value": 2.4, "unit": "nM"}, {"measurement": "% TGD", "setting": "[3]; 0.1 mg/kg qwkx3 i.v. (Group 2)", "value": 2.42, "unit": "%"}, {"measurement": "BW Nadir (%)", "setting": "[3]; 0.1 mg/kg qwkx3 i.v. (Group 2)", "value": "−26.80", "unit": "%"}, {"measurement": "TC (tumor growth delay, T−C)", "setting": "[3]; 0.1 mg/kg qwkx3 i.v. (Group 2)", "value": 0.81, "unit": "days"}, {"measurement": "Deaths TR (treatment related)", "setting": "[3]; 0.1 mg/kg qwkx3 i.v. (Group 2)", "value": 5}, {"measurement": "Regressions CR (complete regression)", "setting": "[3]; 0.1 mg/kg qwkx3 i.v. (Group 2)", "value": 0}, {"measurement": "Regressions PR (partial regression)", "setting": "[3]; 0.1 mg/kg qwkx3 i.v. (Group 2)", "value": 0}, {"measurement": "Regressions TFS (tumor-free survivor)", "setting": "[3]; 0.1 mg/kg qwkx3 i.v. (Group 2)", "value": 0}, {"measurement": "Median TTE (time to endpoint)", "setting": "[3]; 0.1 mg/kg qwkx3 i.v. (Group 2)", "value": 34.46}, {"measurement": "mortality", "setting": "[3]; 0.1 mg/kg qwkx3 i.v., HT-29 xenograft mice", "value": 50, "unit": "%"}, {"measurement": "maximum body weight loss", "setting": "[3]; 0.1 mg/kg qwkx3 i.v., on day 26", "value": 26.8, "unit": "%"}, {"measurement": "toxicity of the free drug", "setting": "[3]; even at 0.1 mg/kg", "value": "severely toxic"}, {"measurement": "IC50", "setting": "NCI-H1299 (lung) cells", "value": 2.8, "unit": "nM"}, {"measurement": "solubility in water", "setting": "[4]", "value": 100, "unit": "µg/mL"}, {"measurement": "IC50", "setting": "HT-29 (colon) cells", "value": 1.3, "unit": "nM"}]}
{"smiles": "CC[C@]1(O)C[C@@H]2CN(CCc3c([nH]c4ccccc34)[C@@](C(=O)OC)(c3cc4c(cc3OC)N(C)[C@H]3[C@@](O)(C(=O)OC)[C@H](OC(C)=O)[C@]5(CC)C=CCN6CC[C@]43[C@@H]65)C2)C1", "note": "[Vinblastine]", "values": [{"measurement": "antitumor effectiveness compared to CDP-PEG-SS-Tubulysin", "setting": "[3]; 4 mg/kg qwkx3 i.v.", "value": "significantly less effective"}, {"measurement": "% TGD", "setting": "[3]; 4 mg/kg qwkx3 i.v. (Group 3)", "value": 33.89, "unit": "%"}, {"measurement": "BW Nadir (%)", "setting": "[3]; 4 mg/kg qwkx3 i.v. (Group 3)", "value": "−3.60", "unit": "%"}, {"measurement": "Statistical Significance vs G1 (vehicle)", "setting": "[3]; 4 mg/kg qwkx3 i.v. (Group 3)", "value": "** (** = 0.001< P < 0.01)"}, {"measurement": "Statistical Significance vs G4 (CDP-S-S-TUB qwkx3)", "setting": "[3]; 4 mg/kg qwkx3 i.v. (Group 3)", "value": "*** (*** = P < 0.001)"}, {"measurement": "TC (tumor growth delay, T−C)", "setting": "[3]; 4 mg/kg qwkx3 i.v. (Group 3)", "value": 11.4, "unit": "days"}, {"measurement": "Deaths TR (treatment related)", "setting": "[3]; 4 mg/kg qwkx3 i.v. (Group 3)", "value": 0}, {"measurement": "Regressions CR (complete regression)", "setting": "[3]; 4 mg/kg qwkx3 i.v. (Group 3)", "value": 0}, {"measurement": "Regressions PR (partial regression)", "setting": "[3]; 4 mg/kg qwkx3 i.v. (Group 3)", "value": 0}, {"measurement": "Regressions TFS (tumor-free survivor)", "setting": "[3]; 4 mg/kg qwkx3 i.v. (Group 3)", "value": 0}, {"measurement": "Median TTE (time to endpoint)", "setting": "[3]; 4 mg/kg qwkx3 i.v. (Group 3)", "value": 45.05}]}
